Results on two molecules are retold here after US20240182785A1, “COMPOUND, COMPOSITION, CURED PRODUCT, OPTICALLY ANISOTROPIC BODY, OPTICAL ELEMENT, AND LIGHT GUIDE ELEMENT” (FUJIFILM Corporation, priority 2021, published 2024).

Common to all, as to format: physicochemical
Data set [1] can be described thus: Evaluation of light resistance of optically anisotropic layer (Super Xenon Weather Meter). To be noted: rate of change in Re of cured layer (25 parts compound, 75 parts L-1), 5 million lx, 50 hours, 63° C., 50% RH, oxygen-blocking. As to the method: (§1) As shown below, the light resistance and the durability of the optically anisotropic layer produced using the composition containing each of the compounds A-1 to A-11 and the compounds B-1 and B-2 were evaluated.
(§2) A coating liquid having the following composition was prepared and applied by spin-coating, onto a rubbing-treated glass attached with an alignment film. Each composition was irradiated with ultraviolet rays of 300 mJ/cm^2 through a filter that cuts light having a wavelength of 350 nm or less on a hot plate which had been heated to a temperature at which a nematic phase is shown, whereby an optically anisotropic layer for a light resistance/durability test was produced.
(§3) The polymerizable liquid crystal compound L-1 is a mixture obtained by mixing at a
(§4) ratio of the following L-1-1/L-1-2/L-1-3=84/14/2 (in terms of mass ratio).
The produced optically anisotropic layers for light resistance/durability tests were irradiated with light using a Super Xenon Weather Meter SX75 manufactured by Suga Test Instruments Co., Ltd. Using KU-1000100 manufactured by King Seisakusho Co., Ltd. as a UV cut filter, a light resistance test was carried out by irradiation with 5 million lx of light for 50 hours under an oxygen-blocking condition. The temperature of the specimen to be tested (the temperature inside the test device) was set to 63° C. The relative humidity in the test device was 50% RH.
The Re of the optically anisotropic layer before and after the light resistance test was measured, the light resistance in a case where the rate of change in Re described below was less than 10% was evaluated as A, and the light resistance in a case where the rate of change in Re was 10% or more was evaluated as B. The smaller the rate of change in Re, the more excellent the light resistance.
(§5) Rate of change in Re (%)=[100×{|(Re after test)−(Re before test)|}/(Re before test)]
(§6) Re was measured with Axoscan manufactured by Axometrics Inc. at a wavelength of 550 nm, and the measurement temperature was set to room temperature.

Data set [2] is described as follows: Evaluation of liquid crystallinity (hot stage, polarization microscope). More on the design: key: A case of having liquid crystallinity was evaluated as A; a case of having no liquid crystallinity was evaluated as B. To be noted: heated on a hot stage. As to the method:
The respective compounds (the compounds A-1 to A-11 and the compounds B-1 and B-2) were heated on a hot stage and observed with a polarization microscope, and the phase transition temperature was measured to evaluate the presence or absence of the liquid crystallinity. A case of having liquid crystallinity was evaluated as A, and a case of having no liquid crystallinity was evaluated as B. The results are shown in Table 1.
Since the compound A-8 has melting points of 200° C. or higher and undergoes a polymerization reaction during heating, liquid crystallinity could not be evaluated.

A short description of data set [3]: Evaluation of solubility in cyclopentanone. To be noted: precipitation concentration in cyclopentanone at 25° C. As to the method: The solubility of each of the compounds (the compounds A-1 to A-11 and the compounds B-1 and B-2) in cyclopentanone was evaluated.
Data set [4] in a line: Evaluation of durability of optically anisotropic layer (moisture-heat resistance test). To be noted: rate of change in Re of cured layer (25 parts compound, 75 parts L-1), 136 hours at 100° C., humidity 95%. As for the experimental part: as §1, §2, §3, §4, §5, §6
The produced optically anisotropic layer was allowed to be left for 136 hours at 100° C. and a humidity of 95%, whereby a moisture-heat resistance test was carried out. The rate of change in Re before and after the durability test was evaluated, the durability in a case where the rate of change in Re was less than 10% was evaluated as A, and the durability in a case where the rate of change in Re was 10% or more was evaluated as B. The smaller the rate of change in Re, the more excellent the durability.

The nature of data set [5]: Measurement of Δn (refractive index anisotropy), wedge-shaped liquid crystal cell. To be noted: 550 nm, 30° C. or lower limit temperature of nematic phase +0 to 10° C.; some compounds extrapolated from 1/2 mixture with L-1-1. As for the experimental part:
The Δn of each of the compounds (the compounds A-1 to A-11 and the compounds B-1 and B-2), which are the compounds to be measured, was measured by a method using a wedge-shaped liquid crystal cell described on page 202 in the Liquid crystal handbook (edited by the liquid crystal handbook editorial board, published by Maruzen Co., Ltd., 2000). Δn was defined as a measured value at a wavelength of 550 nm at 30° C. or the lower limit temperature of the nematic phase +0° C. to 10° C. In a case of a compound which is liable to crystallize or a compound having no liquid crystallinity, evaluation was carried out using a mixture thereof with the other liquid crystal compound, and Δn was estimated from the extrapolated value of the measured value thereof. The following L-1-1 was used as the other liquid crystal compound. As the above mixture, a mixture obtained by mixing at a ratio of the compound to be measured/the L-1-1=1/2 (in terms of mass ratio) was used.
A case where Δn was 0.40 or more was evaluated as A, a case where Δn was 0.35 or more and less than 0.40 was evaluated as B, a case where Δn was 0.30 or more and less than 0.35 was evaluated as C, and a case where Δn was less than 0.30 was evaluated as D. The results are shown in Table 1.

With `CC(=O)OCCCCCCCCCCOc1ccc(C#Cc2ccc(OC(=O)c3ccc(C#Cc4ccc(OCCCCCCCCCCOC(C)=O)c(F)c4)cc3)cc2)cc1F` [Compound B-1, reference compound], in data set [1], the Light resistance entry was “B (the light resistance in a case where the rate of change in Re was 10% or more was evaluated as B)”. Further, in data set [2], the Liquid crystallinity result was “A”. Moreover, the Solubility result in data set [3] was “A (the solubility in a case where the precipitation concentration was 5% by mass or more was evaluated as A)”. Further, in data set [4], the Durability result was “A (the durability in a case where the rate of change in Re was less than 10% was evaluated as A)”. In data set [5], the Δn entry is reported as “D (a case where Δn was less than 0.30 was evaluated as D)”.

For the molecule `C=CC(=O)OCCCCOc1ccc(C(=O)Nc2ccc(C#Cc3ccc4cc(OCCCCOC(=O)C=C)ccc4c3)cc2C(F)(F)F)cc1` [Compound B-2, reference compound], the Light resistance entry in data set [1] is “A (the light resistance in a case where the rate of change in Re described below was less than 10% was evaluated as A)”. The Liquid crystallinity result in data set [2] is given as “A”. Further, the Solubility entry in data set [3] is listed as “A (the solubility in a case where the precipitation concentration was 5% by mass or more was evaluated as A)”. Further, the Durability entry in data set [4] is listed as “A (the durability in a case where the rate of change in Re was less than 10% was evaluated as A)”. The Δn entry in data set [5] was “C (a case where Δn was 0.30 or more and less than 0.35 was evaluated as C)”.
